From ChEMBL document CHEMBL4507270 (2021)

Experiments:
[1] = molecular target: Mitogen-activated protein kinase kinase kinase 19 (Homo sapiens) (UniProt Q56UN5)
[2] = molecular target: Transient receptor potential cation channel subfamily M member 6 (Homo sapiens) (UniProt Q9BX84)
[3] = molecular target: 5-hydroxytryptamine receptor 1E (Homo sapiens) (UniProt P28566); conditions: Compound concentration 10.0 uM
[4] = molecular target: Ribosomal protein S6 kinase alpha-3 (Homo sapiens) (UniProt P51812)
[5] = test system: Phosphatidylinositol 4,5-bisphosphate 3-kinase catalytic subunit alpha isoform (Homo sapiens), P42336 [E545K]
[6] = molecular target: Hormonally up-regulated neu tumor-associated kinase (Homo sapiens) (UniProt P57058)
[7] = molecular target: Fibroblast growth factor receptor 3 (Homo sapiens, UniProt P22607)
[8] = molecular target: Non-receptor tyrosine-protein kinase TYK2 (Homo sapiens) (UniProt P29597)
[9] = molecular target: Muscarinic acetylcholine receptor M4 (Homo sapiens) (UniProt P08173); conditions: Compound concentration 10.0 uM
[10] = molecular target: Rho-associated protein kinase 1 (Homo sapiens) (UniProt Q13464)
[11] = molecular target: Dual specificity tyrosine-phosphorylation-regulated kinase 2 (Homo sapiens) (UniProt Q92630)
[12] = molecular target: Cyclin-dependent kinase 13 (Homo sapiens) (UniProt Q14004)
[13] = molecular target: Tyrosine-protein kinase JAK3 (Homo sapiens) (UniProt P52333)
[14] = molecular target: Cyclin-dependent kinase 3 (Homo sapiens) (UniProt Q00526)
[15] = molecular target: Eukaryotic translation initiation factor 2-alpha kinase 1 (Homo sapiens) (UniProt Q9BQI3)
[16] = molecular target: Myosin light chain kinase, smooth muscle (Homo sapiens) (UniProt Q15746)
[17] = molecular target: Sigma non-opioid intracellular receptor 1 (Homo sapiens) (UniProt Q99720); conditions: Compound concentration 10.0 uM
[18] = molecular target: Atypical kinase COQ8A, mitochondrial (Homo sapiens) (UniProt Q8NI60)
[19] = molecular target: Mitogen-activated protein kinase 4 (Homo sapiens) (UniProt P31152)
[20] = molecular target: Rho-associated protein kinase 2 (Homo sapiens) (UniProt O75116)
[21] = molecular target: Insulin receptor (Homo sapiens) (UniProt P06213)
[22] = molecular target: STE20/SPS1-related proline-alanine-rich protein kinase (Homo sapiens) (UniProt Q9UEW8)
[23] = molecular target: Calcium/calmodulin-dependent protein kinase type II subunit delta (Homo sapiens) (UniProt Q13557)
[24] = molecular target: Muscarinic acetylcholine receptor M3 (Homo sapiens) (UniProt P20309); conditions: Compound concentration 10.0 uM
[25] = test system: Epidermal growth factor receptor (Homo sapiens), P00533 [UNDEFINED MUTATION]
[26] = molecular target: Dual specificity mitogen-activated protein kinase kinase 7 (Homo sapiens) (UniProt O14733)
[27] = molecular target: 5'-AMP-activated protein kinase catalytic subunit alpha-2 (Homo sapiens) (UniProt P54646)
[28] = molecular target: Mitogen-activated protein kinase 8 (Homo sapiens) (UniProt P45983)
[29] = test system: Epidermal growth factor receptor (Homo sapiens), P00533 [L858R,T790M]
[30] = molecular target: Serine/threonine-protein kinase Sgk2 (Homo sapiens) (UniProt Q9HBY8)
[31] = molecular target: Protein kinase C iota type (Homo sapiens) (UniProt P41743)
[32] = molecular target: Ribosomal protein S6 kinase alpha-2 (Homo sapiens) (UniProt Q15349)
[33] = molecular target: Activin receptor type-1 (Homo sapiens) (UniProt Q04771)
[34] = test system: Phosphatidylinositol 4,5-bisphosphate 3-kinase catalytic subunit alpha isoform (Homo sapiens), P42336 [E542K]
[35] = molecular target: Alpha-1B adrenergic receptor (Homo sapiens) (UniProt P35368); conditions: Compound concentration 10.0 uM
[36] = test system: Phosphatidylinositol 4,5-bisphosphate 3-kinase catalytic subunit alpha isoform (Homo sapiens), P42336 [I800L]
[37] = molecular target: NUAK family SNF1-like kinase 1 (Homo sapiens) (UniProt O60285)
[38] = test system: Mast/stem cell growth factor receptor Kit (Homo sapiens), P10721 [D816H]
[39] = molecular target: Alpha-2A adrenergic receptor (Homo sapiens) (UniProt P08913); conditions: Compound concentration 10.0 uM
[40] = molecular target: Tyrosine-protein kinase HCK (Homo sapiens) (UniProt P08631)
[41] = molecular target: Ribosomal protein S6 kinase alpha-5 (Homo sapiens) (UniProt O75582)
[42] = molecular target: Membrane-associated tyrosine- and threonine-specific cdc2-inhibitory kinase (Homo sapiens) (UniProt Q99640)
[43] = molecular target: Serine/threonine-protein kinase MRCK beta (Homo sapiens) (UniProt Q9Y5S2)
[44] = molecular target: Tyrosine-protein kinase Tec (Homo sapiens) (UniProt P42680)
[45] = Compound concentration 1000.0 nM
[46] = Compound concentration 100.0 nM

Chain of Myosin light chain kinase, smooth muscle (Homo sapiens) (Q15746 whole entry): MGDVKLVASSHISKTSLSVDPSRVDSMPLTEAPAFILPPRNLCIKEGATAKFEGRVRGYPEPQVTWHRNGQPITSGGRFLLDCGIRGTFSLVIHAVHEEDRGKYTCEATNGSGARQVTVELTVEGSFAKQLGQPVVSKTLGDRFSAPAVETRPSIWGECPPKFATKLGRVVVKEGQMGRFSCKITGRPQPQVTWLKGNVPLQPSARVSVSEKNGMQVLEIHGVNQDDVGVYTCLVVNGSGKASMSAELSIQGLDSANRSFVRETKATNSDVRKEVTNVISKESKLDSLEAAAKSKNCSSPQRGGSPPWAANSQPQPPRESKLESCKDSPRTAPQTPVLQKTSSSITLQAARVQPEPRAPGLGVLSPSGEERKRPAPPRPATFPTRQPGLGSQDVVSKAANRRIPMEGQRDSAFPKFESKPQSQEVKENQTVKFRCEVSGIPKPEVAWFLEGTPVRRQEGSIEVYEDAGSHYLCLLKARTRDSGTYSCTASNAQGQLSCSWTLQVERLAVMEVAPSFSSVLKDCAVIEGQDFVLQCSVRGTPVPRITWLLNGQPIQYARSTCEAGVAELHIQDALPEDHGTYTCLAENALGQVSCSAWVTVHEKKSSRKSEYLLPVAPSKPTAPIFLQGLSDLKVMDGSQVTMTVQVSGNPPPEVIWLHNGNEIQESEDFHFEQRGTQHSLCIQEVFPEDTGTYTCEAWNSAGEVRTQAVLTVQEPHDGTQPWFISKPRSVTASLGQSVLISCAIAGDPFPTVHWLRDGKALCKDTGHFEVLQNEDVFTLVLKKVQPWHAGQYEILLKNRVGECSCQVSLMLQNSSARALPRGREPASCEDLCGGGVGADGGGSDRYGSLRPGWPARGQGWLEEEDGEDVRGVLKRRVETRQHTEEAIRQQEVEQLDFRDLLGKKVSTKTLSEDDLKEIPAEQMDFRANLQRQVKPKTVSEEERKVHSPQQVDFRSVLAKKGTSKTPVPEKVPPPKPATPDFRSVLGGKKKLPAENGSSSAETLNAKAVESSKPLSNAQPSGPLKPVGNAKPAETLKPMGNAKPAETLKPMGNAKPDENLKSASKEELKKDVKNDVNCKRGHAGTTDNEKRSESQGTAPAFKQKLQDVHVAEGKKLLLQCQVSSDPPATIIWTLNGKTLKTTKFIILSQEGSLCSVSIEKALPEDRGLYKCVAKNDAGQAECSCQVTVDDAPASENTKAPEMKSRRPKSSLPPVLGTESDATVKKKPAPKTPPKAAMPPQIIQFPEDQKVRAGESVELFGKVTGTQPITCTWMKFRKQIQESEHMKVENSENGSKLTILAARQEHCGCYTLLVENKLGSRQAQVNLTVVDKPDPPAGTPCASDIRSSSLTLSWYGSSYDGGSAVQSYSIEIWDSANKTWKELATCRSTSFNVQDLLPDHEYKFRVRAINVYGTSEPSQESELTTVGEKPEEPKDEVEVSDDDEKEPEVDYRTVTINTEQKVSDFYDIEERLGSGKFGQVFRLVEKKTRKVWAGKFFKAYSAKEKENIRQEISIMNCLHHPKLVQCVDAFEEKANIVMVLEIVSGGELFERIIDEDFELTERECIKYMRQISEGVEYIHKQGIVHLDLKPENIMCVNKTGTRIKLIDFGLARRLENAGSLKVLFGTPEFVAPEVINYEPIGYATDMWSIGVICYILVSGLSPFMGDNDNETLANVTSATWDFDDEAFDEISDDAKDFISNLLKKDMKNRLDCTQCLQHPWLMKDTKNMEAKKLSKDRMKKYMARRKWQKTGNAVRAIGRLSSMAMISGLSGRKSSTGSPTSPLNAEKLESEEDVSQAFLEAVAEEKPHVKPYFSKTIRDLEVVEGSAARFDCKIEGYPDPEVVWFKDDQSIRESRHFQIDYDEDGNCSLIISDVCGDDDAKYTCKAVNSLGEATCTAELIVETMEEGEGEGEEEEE
Chain of Atypical kinase COQ8A, mitochondrial (Homo sapiens) (Q8NI60 163-647 limits assumed): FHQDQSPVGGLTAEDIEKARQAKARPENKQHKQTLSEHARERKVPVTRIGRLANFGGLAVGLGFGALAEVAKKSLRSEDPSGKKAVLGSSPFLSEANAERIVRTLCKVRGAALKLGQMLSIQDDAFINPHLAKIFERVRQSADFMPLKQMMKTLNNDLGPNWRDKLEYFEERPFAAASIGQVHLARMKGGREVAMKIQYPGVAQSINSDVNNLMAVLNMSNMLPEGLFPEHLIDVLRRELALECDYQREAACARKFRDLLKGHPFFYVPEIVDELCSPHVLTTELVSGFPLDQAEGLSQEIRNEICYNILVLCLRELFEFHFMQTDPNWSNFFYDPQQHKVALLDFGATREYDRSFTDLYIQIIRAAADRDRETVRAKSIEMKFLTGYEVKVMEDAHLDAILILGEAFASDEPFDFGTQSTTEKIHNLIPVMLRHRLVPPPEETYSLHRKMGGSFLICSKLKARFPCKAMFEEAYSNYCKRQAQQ
Chain of Ribosomal protein S6 kinase alpha-2 (Homo sapiens) (Q15349 whole entry): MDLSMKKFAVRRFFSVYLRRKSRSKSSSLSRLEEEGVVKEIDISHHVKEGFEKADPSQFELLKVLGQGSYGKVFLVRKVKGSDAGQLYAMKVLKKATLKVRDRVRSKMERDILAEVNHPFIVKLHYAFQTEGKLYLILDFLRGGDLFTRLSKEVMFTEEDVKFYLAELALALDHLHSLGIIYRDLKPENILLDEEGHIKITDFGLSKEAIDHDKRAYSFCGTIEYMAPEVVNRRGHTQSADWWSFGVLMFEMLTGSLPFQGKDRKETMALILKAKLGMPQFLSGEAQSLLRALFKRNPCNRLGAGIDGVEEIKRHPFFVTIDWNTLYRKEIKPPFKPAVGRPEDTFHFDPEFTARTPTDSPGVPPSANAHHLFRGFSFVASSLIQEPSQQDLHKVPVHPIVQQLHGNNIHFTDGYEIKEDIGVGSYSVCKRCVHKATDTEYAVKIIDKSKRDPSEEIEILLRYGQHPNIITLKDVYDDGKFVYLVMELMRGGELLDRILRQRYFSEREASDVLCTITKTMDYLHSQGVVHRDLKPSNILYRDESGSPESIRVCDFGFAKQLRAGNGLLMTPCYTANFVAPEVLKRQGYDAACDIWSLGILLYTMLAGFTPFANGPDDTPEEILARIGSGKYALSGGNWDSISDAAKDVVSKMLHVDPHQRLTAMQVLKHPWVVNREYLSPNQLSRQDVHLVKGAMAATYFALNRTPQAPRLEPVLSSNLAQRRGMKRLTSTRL
Chain of Insulin receptor (Homo sapiens) (P06213 28-758 limits assumed): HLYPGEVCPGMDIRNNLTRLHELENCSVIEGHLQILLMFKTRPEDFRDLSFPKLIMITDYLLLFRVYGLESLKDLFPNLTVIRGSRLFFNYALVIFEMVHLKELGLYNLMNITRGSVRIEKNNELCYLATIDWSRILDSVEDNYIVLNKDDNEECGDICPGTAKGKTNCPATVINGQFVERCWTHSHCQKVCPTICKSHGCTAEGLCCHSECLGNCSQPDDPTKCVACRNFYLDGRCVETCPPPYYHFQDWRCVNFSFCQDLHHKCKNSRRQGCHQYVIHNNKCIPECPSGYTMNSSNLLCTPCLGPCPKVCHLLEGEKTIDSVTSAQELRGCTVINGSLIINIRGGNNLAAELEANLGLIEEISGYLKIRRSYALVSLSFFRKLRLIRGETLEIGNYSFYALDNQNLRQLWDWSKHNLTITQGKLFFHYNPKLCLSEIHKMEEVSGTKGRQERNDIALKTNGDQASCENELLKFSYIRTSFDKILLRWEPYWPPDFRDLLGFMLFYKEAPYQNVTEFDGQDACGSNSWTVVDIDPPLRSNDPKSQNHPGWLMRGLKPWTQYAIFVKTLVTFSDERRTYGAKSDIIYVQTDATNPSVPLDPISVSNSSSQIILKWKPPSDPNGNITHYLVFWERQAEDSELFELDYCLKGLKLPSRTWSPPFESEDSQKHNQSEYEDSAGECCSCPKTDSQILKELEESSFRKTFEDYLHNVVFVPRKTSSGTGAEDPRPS
Chain of Insulin receptor (Homo sapiens) (P06213 763-1382 limits assumed): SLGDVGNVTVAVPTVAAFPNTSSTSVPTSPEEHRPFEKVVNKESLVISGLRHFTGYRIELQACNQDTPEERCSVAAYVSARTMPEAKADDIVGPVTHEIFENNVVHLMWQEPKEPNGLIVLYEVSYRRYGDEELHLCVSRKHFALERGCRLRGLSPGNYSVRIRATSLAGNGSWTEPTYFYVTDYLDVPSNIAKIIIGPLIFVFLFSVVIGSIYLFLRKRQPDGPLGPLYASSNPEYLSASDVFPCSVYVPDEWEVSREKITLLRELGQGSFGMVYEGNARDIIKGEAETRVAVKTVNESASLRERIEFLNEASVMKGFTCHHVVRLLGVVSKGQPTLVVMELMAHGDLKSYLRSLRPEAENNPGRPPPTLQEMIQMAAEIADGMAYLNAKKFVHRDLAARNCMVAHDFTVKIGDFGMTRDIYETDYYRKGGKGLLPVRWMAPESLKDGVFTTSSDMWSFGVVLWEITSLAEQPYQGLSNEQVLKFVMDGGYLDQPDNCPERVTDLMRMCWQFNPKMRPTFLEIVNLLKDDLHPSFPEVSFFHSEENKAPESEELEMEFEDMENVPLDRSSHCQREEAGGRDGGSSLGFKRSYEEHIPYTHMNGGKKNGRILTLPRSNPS
Chain of Calcium/calmodulin-dependent protein kinase type II subunit delta (Homo sapiens) (Q13557 whole entry): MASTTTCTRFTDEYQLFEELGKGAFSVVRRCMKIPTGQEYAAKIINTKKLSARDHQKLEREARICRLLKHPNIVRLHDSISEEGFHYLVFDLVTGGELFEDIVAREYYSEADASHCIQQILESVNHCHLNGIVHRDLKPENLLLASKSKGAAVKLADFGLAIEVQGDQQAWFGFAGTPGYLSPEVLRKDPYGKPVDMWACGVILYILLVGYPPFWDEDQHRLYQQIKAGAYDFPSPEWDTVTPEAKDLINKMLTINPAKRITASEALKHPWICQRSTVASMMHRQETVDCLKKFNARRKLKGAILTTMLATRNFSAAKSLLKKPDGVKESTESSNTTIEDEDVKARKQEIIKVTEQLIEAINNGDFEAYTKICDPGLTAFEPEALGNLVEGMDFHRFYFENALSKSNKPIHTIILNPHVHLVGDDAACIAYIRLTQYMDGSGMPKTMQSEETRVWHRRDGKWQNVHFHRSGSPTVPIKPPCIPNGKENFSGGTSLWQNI

Cc1cc(NC(=O)c2cccc(S(F)(F)(F)(F)F)c2)cc(-n2ccn3nc(-c4cccnc4)cc23)c1 [BAY-309]
inactive: residual activity [1, 45] 100% | residual activity [2, 45] 97% | inhibition [3] 19.9% | residual activity [4, 45] 89% | residual activity [5, 45] 72.5% | residual activity [6, 45] 77.6% | residual activity [7, 45] 90.7% | residual activity [8, 45] 51% | inhibition [9] 14.6% | residual activity [10, 45] 74.8% | residual activity [11, 45] 100% | residual activity [12, 45] 64.2% | residual activity [13, 45] 96.9% | residual activity [14, 45] 100% | residual activity [15, 45] 100% | residual activity [16, 45] 91.8% | inhibition [17] 19.3% | residual activity [18, 45] 82.8% | residual activity [19, 45] 50.4% | residual activity [20, 45] 87.6% | residual activity [21, 45] 100% | residual activity [22, 45] 100% | residual activity [23, 45] 80% | inhibition [24] 16.3% | residual activity [25, 45] 98.7% | residual activity [26, 45] 89.7% | residual activity [27, 45] 100% | residual activity [28, 45] 55.9% | residual activity [29, 45] 97.6% | residual activity [30, 45] 100% | residual activity [31, 45] 80.4% | residual activity [32, 45] 84% | residual activity [33, 45] 100% | residual activity [34, 45] 75.2% | inhibition [35] -8.99% | residual activity [36, 45] 96% | residual activity [37, 45] 51.3% | residual activity [38, 45] 73.1% | inhibition [39] 15.8% | residual activity [40, 45] 98.7% | residual activity [41, 45] 100% | residual activity [42, 45] 100% | residual activity [43, 45] 100% | residual activity [44, 45] 100%

Cc1cc(C)c(-n2ccn3nc(-c4cccnc4)cc23)cc1NC(=O)c1cc(C#N)cc(S(F)(F)(F)(F)F)c1 [BAY-826]
inactive: residual activity [1, 46] 99.5% | residual activity [2, 46] 80.2% | inhibition [3] 3.57% | residual activity [4, 46] 65.1% | residual activity [5, 46] 77.8% | residual activity [6, 46] 83% | residual activity [7, 46] 95.6% | residual activity [8, 46] 76.9% | inhibition [9] 14.9% | residual activity [10, 46] 74.9% | residual activity [11, 46] 82.5% | residual activity [12, 46] 59% | residual activity [13, 46] 95.3% | residual activity [14, 46] 92.4% | residual activity [15, 46] 100% | residual activity [16, 46] 57.7% | inhibition [17] -4.84% | residual activity [18, 46] 94.5% | residual activity [19, 46] 86.3% | residual activity [20, 46] 66.2% | residual activity [21, 46] 69% | residual activity [22, 46] 64.6% | residual activity [23, 46] 89.1% | inhibition [24] 10.5% | residual activity [25, 46] 78.7% | residual activity [26, 46] 70.8% | residual activity [27, 46] 82.7% | residual activity [28, 46] 76.8% | residual activity [29, 46] 100% | residual activity [30, 46] 100% | residual activity [31, 46] 100% | residual activity [32, 46] 90.9% | residual activity [33, 46] 83.3% | residual activity [34, 46] 83.6% | inhibition [35] -0.87% | residual activity [36, 46] 92.8% | residual activity [37, 46] 100% | residual activity [38, 46] 81.8% | inhibition [39] 11.1% | residual activity [40, 46] 72.1% | residual activity [41, 46] 83.2% | residual activity [42, 46] 100% | residual activity [43, 46] 95.5% | residual activity [44, 46] 88.4%
